How the values were obtained:
[1] = test system: U2OS-DRGFP cells; assay: DR-GFP reporter gene conversion assay for homologous recombination repair; type: cell-based; settings: 24 h exposure; inhibition in the 0 to 5 μM range; FIG. 8A
Method: (§1) FIG. 8 is a composite figure showing that C527 inhibits homologous recombination repair. […] U2OS-DRGFP cells were transfected with I-SCE-I and then exposed to C527 at the indicated concentration for 24 h. Cells were then subjected to flow cytometry analysis. The percentage of GFP positive cells was normalized by solvent vehicle treated group. […] HeLa cells, integrated with the NHEJ reporter, were treated with C527 and analyzed as described in (FIG. 8A). […] HeLa cells were pre-treated with DMSO or C527 at the indicated concentration and then exposed to camptothecin (CPT) for 1 hr. RAD51 foci were detected using immunofluorescence.
HR repair activity was analyzed using DR-GFP reporter as previously described (Pierce A J et al, Genes Dev, 13: 2633). U2OS-DRGFP cells carrying a chromosomally integrated single copy of HR repair substrate were used to test the effect of C527 on HR. DSB-induced HR results in restoration and expression of GFP and was quantified by FACS. Briefly, 24 h after induction of chromosomal double-strand breaks through the expression of I-SceI, cells were treated with C527 for 24 h. Cells were subjected to FACS analysis and the percentage of GFP-positive cells was quantitated relative to the total viable cell number. For each analysis, 100,000 cells were processed. […]

[2] = test system: HeLa cells; assay: camptothecin-induced RAD51 and H2AX foci formation, immunofluorescence; type: cell-based, human; settings: camptothecin for 1 hr after pre-treatment; FIG. 8C
Method: as §1
Cells were pre-extracted with extraction buffer (0.25% Triton-X100 in 200 mM HEPES at pH 7.4, 50 mM NaCl, 3 mM MgCl2 and 300 mM sucrose) on ice for 2 min prior to fixation with 4% paraformaldehyde. RAD51 foci were detected using anti-RAD51 antibody (Santa Cruz Biotechnology) and visualized using Alexa Fluor 488-conjugated secondary antibody. The quantification of cells with RAD51 foci was performed by counting the number of cells with RAD51 foci. At least 200 cells were counted from each sample. Data are represented as mean±SD from three independent experiments.
Camptothecin activated the assembly of RAD51 and H2AX foci.

[3] = test system: HeLa cells; assay: sensitization to DNA damaging agents, MTT assay; type: cell-based, human; settings: 1 μM C527 for 24 h, FIG. 10
Method: FIG. 10 is a composite figure showing that C527 sensitizes tumor cells to DNA damaging agents. HeLa cells were plated in 96-well plates and treated with 1 μM C527 for 24 h, followed by treatment with mitomycin C (MMC, 0.25 μM), camptothcin (CPT, 0.1 μM), or etoposide for 4 more days. Cell viability was assessed using the MTT assay.
HeLa cells were seeded in 96-well plate and treated with C527 for 4 more days. 20 μL MTT (Sigma) at 5 mg/mL was added to each well and cells were left at 37° C. for incubation. 4 h later, the metabolic product was dissolved in a solution containing 10% SDS, 5% isopropanol and 0.01 mol/L HCl. Optical density at 565 nm was measured in an automated plate reader. The percentage of cell survival was determined by normalizing to solvent vehicle treated cells.
Inhibitors of the FA-BRCA pathway are known to sensitize tumor cells to the cytotoxic effects of ICL-[…] agents. Specifically, it is known that proteasome inhibitors block FANCD2 monoubiquitination, perhaps through depletion of intracellular pools of free ubiquitin, resulting in inhibition of HR repair (Chirnomas D, Taniguchi T, de la Vega M, et al. Chemosensitization to cisplatin by inhibitors of the Fanconi anemia/BRCA pathway. Mol Cancer Ther. 2006; 5:952-961). The ability of C527 to sensitize pretreated human cells to MMC or to other agents was tested.

[4] = test system: endogenous DUB enzyme complexes; assay: HA-Ub-VS labelling of other endogenous DUBs in HeLa cell extracts; type: biochemical, human; settings: HeLa cell extracts pretreated 4 h (Ub-Ald 5 μM), then Ub-VS 40 min at 30° C.; FIG. 7
Method: FIG. 7 is a composite figure depicting preferential inhibition of the activity of native USP1/UAF1 by C527. HeLa cell extracts were incubated with ubiquitin-aldehyde (Ub-Ald, 5 μM) or C527 at indicated concentrations for 4 h, followed by the addition of 0.5 μM Ub-Vs for 40 min. The reaction was split into two aliquots and subjected to immunoblotting for HA or USP1, respectively.
The ability of C527 to inhibit the deubiquitinating activity of native USP1 complexes derived from human cells was determined next (FIG. 7). For this purpose, the HA-tagged ubiquitin-VS, an affinity reagent known to covalently modify and trap active DUB enzymes in cell extracts was used. Cell extracts prepared from HeLa cells were pretreated with increasing concentrations of C527 for 4 h, followed by the incubation with Ub-VS for 40 min at 30° C. The enzymatic activity of endogenous DUBs was indicated by the conjugation of Ub-VS, detected as HA-labeling (see FIG. 7, high molecular weight bands). […] Ub-VS conjugation was inhibited by ubiquitin-aldehyde (Ub-Ald), a non-specific inhibitor of DUBs (lane 3).

[5] = biological target: T1, USP1 (Homo sapiens, UniProt O94782); assay: Ub-vinyl sulfone conjugation of USP1 in lysates of compound-treated HeLa cells; type: cell-based
T1 construct: endogenous in cells; host or cells: HeLa
T1 sequence (O94782 whole entry): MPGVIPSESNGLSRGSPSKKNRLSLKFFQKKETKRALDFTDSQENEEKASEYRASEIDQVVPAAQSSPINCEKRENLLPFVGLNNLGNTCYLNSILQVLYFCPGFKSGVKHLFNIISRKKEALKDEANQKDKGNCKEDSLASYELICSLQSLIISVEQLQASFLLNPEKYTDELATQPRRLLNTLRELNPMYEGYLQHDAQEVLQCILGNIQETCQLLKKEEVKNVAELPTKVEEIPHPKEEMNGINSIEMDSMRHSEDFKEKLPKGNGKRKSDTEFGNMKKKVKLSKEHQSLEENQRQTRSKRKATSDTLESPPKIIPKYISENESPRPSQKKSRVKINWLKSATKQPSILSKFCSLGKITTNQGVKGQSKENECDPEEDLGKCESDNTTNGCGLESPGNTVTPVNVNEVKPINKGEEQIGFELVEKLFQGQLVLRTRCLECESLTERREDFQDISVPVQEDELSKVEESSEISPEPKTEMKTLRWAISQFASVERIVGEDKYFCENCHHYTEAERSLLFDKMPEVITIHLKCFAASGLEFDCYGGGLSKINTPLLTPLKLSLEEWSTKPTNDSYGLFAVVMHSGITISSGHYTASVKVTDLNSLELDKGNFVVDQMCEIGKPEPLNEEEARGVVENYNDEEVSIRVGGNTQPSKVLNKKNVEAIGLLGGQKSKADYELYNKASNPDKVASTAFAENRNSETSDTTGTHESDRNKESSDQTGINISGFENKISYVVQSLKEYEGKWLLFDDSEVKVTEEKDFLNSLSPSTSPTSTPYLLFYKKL
T1 sequence (Q8TAF3 whole entry partner): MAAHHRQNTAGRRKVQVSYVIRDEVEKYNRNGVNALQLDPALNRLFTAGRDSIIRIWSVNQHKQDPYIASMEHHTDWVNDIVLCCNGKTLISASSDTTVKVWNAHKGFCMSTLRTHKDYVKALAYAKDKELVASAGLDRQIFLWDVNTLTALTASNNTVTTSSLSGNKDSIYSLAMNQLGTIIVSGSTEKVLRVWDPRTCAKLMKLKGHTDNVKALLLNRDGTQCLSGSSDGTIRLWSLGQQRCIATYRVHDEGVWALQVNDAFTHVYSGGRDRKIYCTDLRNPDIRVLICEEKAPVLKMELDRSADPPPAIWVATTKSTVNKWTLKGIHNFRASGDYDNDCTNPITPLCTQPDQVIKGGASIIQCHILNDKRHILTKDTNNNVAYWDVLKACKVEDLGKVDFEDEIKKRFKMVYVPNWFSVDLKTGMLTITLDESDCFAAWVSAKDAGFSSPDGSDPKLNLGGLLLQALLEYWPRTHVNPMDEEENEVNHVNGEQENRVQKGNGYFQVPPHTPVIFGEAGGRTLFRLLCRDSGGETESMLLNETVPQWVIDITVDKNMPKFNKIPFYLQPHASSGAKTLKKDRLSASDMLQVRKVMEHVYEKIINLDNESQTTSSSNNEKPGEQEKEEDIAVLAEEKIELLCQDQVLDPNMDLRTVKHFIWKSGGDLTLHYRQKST
Method: In one set of experiments, HeLa cells were incubated in the presence of 50 μM of selected inhibitors including the compound of Formula III (933) and the compound of Formula IV (527) for 2, 4, or 6 hours, followed by cell lysis. […] Lysates were incubated with the Ub-vinyl sulfone (Ub-Vs) reagent for 40 minutes. Proteins were electrophoresed on SDS-PAGE, transferred to nitrocellulose, and immunoblotted with the anti-USP1 antibody.
HeLa cells were incubated with the compound of Formula IV (527) for eight hours, followed by cell lysis and incubation of protein extract with Ub-vinyl sulfone.

O=C1c2ccccc2C(=O)c2oc(-c3ccc(F)cc3)nc21 [Formula IV (527)]
gene conversion (cellular GFP), HR activity [1]: dose-dependent decreased in gene conversion | H2AX foci formation [2]: non-detectable effect | RAD51 foci formation [2]: inhibited RAD51 foci formation | sensitization of cells to CPT ([3]; then CPT 0.1 μM for 4 more days): sensitized cells | sensitization of cells to MMC ([3]; then MMC 0.25 μM for 4 more days): sensitized cells | sensitization of cells to etoposide ([3]; then etoposide for 4 more days): not to etoposide | Ub-VS labeling of endogenous DUBs (HA-labeling) [4]: failed to inhibit | USP1 deubiquitinase activity (Ub-vinyl sulfone) ([5]; HeLa cells incubated eight hours, increasing concentrations, FIG. 3): dose-dependent blockade | Ub-Vs conjugation of USP1 / deubiquitinase activity ([5]; HeLa cells, 50 μM inhibitor for 2, 4, or 6 hours, lysates with Ub-Vs 40 minutes, FIG. 2): potent inhibitor of deubiquitinase activity

From patent US10653676B2 (Dana-Farber Cancer Institute, Inc., priority 2010, dated 2020)
